Columns and labels:
[1] = tested on: tk locus of L5178Y mouse lymphoma cells; assay type: cell-based; conditions: 10 μg/ml
From the text: The MLA assay evaluates the mutagenic potential of the tested oils based on quantitation of forward mutations at the tk locus of L5178Y in mouse lymphoma cells. The mutagenicity of the test agents is indicated by the increase in the number of mutants after treatment. The tk enzyme is responsible for incorporating exogenous thymidine via a salvage pathway, into the cell in the form of thymidine monophosphate. Analogues of thymidine, such as trifluorothymidine (TFT) can also be phosphorylated by tk enzyme, which leads to cell toxicity. Forward mutation at this locus results in a loss of tk activity and subsequent resistance to TFT, which is used as the selective agent to kill wild type cells. Thus the tk mutants are not killed by TFT and are able to survive due to their ability to synthesize […] de novo.
The objective of the MLA assay was to study the inhibitory effect of Fat blend 6 (Table 2) on the incidence of mammalian cell gene mutations. Each group of L5178Y cells was incubated with one of the tested oils, i.e. with Fat blend 6 or with oil containing low palmitic acid (LPO), and the incidence of specific mutations was examined using the MLA assay. The study experiments were performed with a constant concentration of reference mutagen. Additionally, several concentrations of the test items were used. Positive and negative controls were included in the experiment.
Study procedure: 1×10^7 cells/culture (80 cm^2 flasks) were exposed to several concentrations of tested oil in the presence of the mutagen (10 μg/ml MMS) in parallel to the negative and positive controls (Table 6, FIG. 2). Cells were incubated with the tested oil and mutagen for 3-4 hours to induce and increase the efficiency of anti-mutagenesis effect. Following the incubation, the mutagen was removed by centrifugation (400 g, 5 min) and the cells were washed twice. Subsequently the cells were re-suspended in growth medium for an expression period of 4 days. Following expression period, cultures were seeded in selective medium (containing TFT). Cells from each experimental group were seeded in four 96-well plates at a density of 2000 cells/well in selective medium. After an incubation period of 11 days at 37±1° C., 5±0.5% CO2 and 95±5% humidified atmosphere, the number of colony containing/empty wells was scored using microscope. The colonies size and/or morphology were also characterized. The inhibitory effect of the 2 tested oils was evaluated using the following criteria: (a) a decrease of Mutation Frequencies in the presence of tested oil related to the positive control. (b) Decreased occurrence of small colonies (slow growth colonies) indicated by a high large/small colonies ratio was an indication for inhibitory potential clastogenic effects and/or chromosomal aberrations.
The study was conducted based on the Ninth Addendum to OECD Guidelines for Testing of Chemicals, Section 4, No. 476, “In Vitro Mammalian Cell Gene Mutation Test”, adapted 21 Jul. 1997. This type of study was used in Whittaker P, Evaluation of commercial kava extracts and kavalactone standards for mutagenicity and toxicity using the mammalian cell gene mutation assay in L5178Y mouse lymphoma cells, Food Chem. Toxicol. 2007.

[2] = tested on: squamous cell carcinoma (SCC); conditions: Harris et al. 2005; cited from earlier work
[3] = palmitic acid in yoghurt; Nadathur et al. 1996; cited from earlier work

| Structure (SMILES) | % change in mutants compare to MMS treat [1] [%] | Colony Sizing Large/small [1] | Mutants/10^6 cells [1] [per 10^6 cells] | Mutation factor [1] | relative suspension growth (RSG) [1] [%] | association of increasing dietary proportions with squamous cell carcinoma [2] | anti-MNNG activity [3] |
| --- | --- | --- | --- | --- | --- | --- | --- |
| COS(C)(=O)=O [MMS, methyl methane sulfonate] | 100 | 1.53 | 489 | 12 | 65.8 | – | – |
| CCCCCCCCCCCCCCCC(=O)O [palmitic acid] | – | – | – | – | – | associated with reduced squamous cell carcinoma (SCC) | exerts anti-N-methyl-N′-nitro-N-nitrosoguanidine (MNNG) activity |
| CCCCCC/C=C\CCCCCCCC(=O)O [palmitoleic acid] | – | – | – | – | – | associated with reduced squamous cell carcinoma (SCC) | – |
